Experiment [1] has as its system B.st. spores. Briefly: Antibiotic detection test in spiked milk, borate/succinate culture of Example 6 (Table 4). The class given is cell-based, Bacillus (Geobacillus) Stearothermophilus. Also on record: key to Color 1 / Color 2: Color result 1 and 2 is a negative result; Color result 1 and 2 is a negative result; 3 is a borderline result; 4 and 5 is a positive result; 4 and 5 is a positive result. To be noted: for % Pos (Color 2) / Color 2: after 16 hours at room temperature; for % Pos (Color 1) / Color 1: immediately after test completion. Here is the method: BCP/Borate/Succinate Solution was prepared by adding 3.8 grams of Borate and 6 grams Succinate to 100 mL of reverse osmosis/deionized water (RO/DI Water) in 125 mL flask. 50 milligrams of BCP was added to a 50 mL conical tube and 5 mL of Borate/Succinate solution was added to the 50 milligrams BCP and mixed.
To prepare media 5 grams glucose and 1 gram Mueller Hinton Broth was dissolved in 100 mL RO/DI Water. 1.2 mL of a 0.01 mg/mL solution of trimethoprim in RO/DI Water was prepared and added to the media. A 20 mL of BCP/Borate/Succinate was added to the media and the media was sterile filtered through a 0.45 micron filter and then cooled to 4 degrees C.
Agar was prepared by combining 0.3 grams Difco Bacto-Agar (Item #0140-01), 0.225 NaCl and 17.485 RO/DI Water. The mixture was heated to 95° C. and then removed from the heat and allowed to cool to 75° C. Next 6 mL of media (prepared as described above with BCP/Tris) was added to the agar and mixed for 5 minutes. The mixture was cooled to 57° C. and 1 mL spore solution (concentration of 1 billion cfu/mL) was added and mixed together for 5 minutes. 0.200 mL was dispensed into the bottom of each of the vials.
In test operation 200 microliters of various milk sample, spiked with known concentrations of antibiotics, were pipetted into test vials and incubated for the prescribed time (in this test 2 hours 10 minutes) and prescribed temperature (64 degrees C.+/−2 degrees C.). Incubation was in the Charm I Inctronic incubator. Results were recorded immediately after test completion (Color 1) and after being left at room temperature for 16 hours (Color 2). Results listed are in parts per billion (ppb). 4 samples were run at each concentrations except for raw negative milk (16 samples) and 3 ppb pen G (2 samples) and amoxicillin (2 samples). Abbreviations are penicillin G (PenG); sulfamethazine (SMZ); sulfadimethoxine (SDM); tylosin (TY); gentamicin (G); oxytetracycline (OT); pirlimycin (Pirl); amoxicillin (Amox); ampicillin (Amp); cloxacillin (Clox); ceftiofur sodium (Ceft); cephaprin (Ceph); tilmicosin (Til); sulfadoxine (SDN); neomycin (Neo). Color result 1 and 2 is a negative result, 3 is a borderline result and 4 and 5 is a positive result.

Experiment [2] relates to B.st. spores. Briefly: Antibiotic detection test in spiked milk, Trizma/succinate culture of Example 7 (Table 5). To be noted: for 16 hr Result / % Pos (16 hr Result): 16 hours later; for % Pos (Result) / Result: immediately after test completion. The class given is cell-based, Bacillus (Geobacillus) Stearothermophilus. Here is the method:
A Trizma/Succinate solution was prepared by adding 2.5 grams Trizma Base and 6 grams Succinate to 100 mL of reverse osmosis/deionized water (RO/DI Water) in a 125 mL flask. 40 milligrams of BCP (see example 1 for BCP preparation) was then added to a 50 mL conical tube and 25 mL of the Trizma/Succinate solution was added to the 40 milligrams BCP and mixed.
The media was prepared by dissolving 5 grams glucose and 1 gram Mueller Hinton Broth in 100 mL RO/DI Water. 1.2 mL of a 0.01 mg/mL solution of trimethoprim in RO/DI water was added to the media. 20 mL of the BCP/Trizma/Succinate preparation was added to the media and the media was sterile filtered through a 0.45 micron filter and cooled to 4 degrees C.
0.3 grams Difco Bacto-Agar (Item #0140-01), 0.225 NaCl and 17 mL of RO/DI water was combined and mixed and heated the mixture to 95° C. The mixture was removed from the heat and allowed it to cool to 75° C. and then 6 mL media (with BCP/Tris) was added and mixed for 5 minutes. The mixture was cooled to 57° C. and 2 mL spore (concentration of 1 billion cfu/mL) was added and mixed for 5 minutes. 0.200 mL was dispensed into the bottom of each vial.
In test operation 200 microliters of various milk samples, spiked with known concentrations of antibiotics, were pipetted into vials and incubated for the prescribed time (in this test 2 hours 30 minutes) and prescribed temperature (64 degrees C.+/−2 degrees C.). Results were recorded immediately after test completion and 16 hours later. Incubation was in various Charm Inctronic I incubators. Concentrations listed are in parts per billion (ppb). 4 samples were run at each concentration except 16 negative samples were run and 2 samples each for 3 ppb pen G and amoxicillin. Abbreviations are pencillin G (PenG); sulfamethazine (SMZ); sulfadimethoxine (SDM); tylosin (TY); gentamicin (G); oxytetracycline (OT); pirlimycin (Pirl); amoxicillin (Amox); ampicillin (Amp); cloxacillin (Clox); ceftiofur sodium (Ceft); cephaprin (Ceph); tilmicosin (Til); sulfadoxine (SDN); neomycin (Neo).

The structures appear in SMILES notation.

Regarding `CC1(C)S[C@@H]2[C@H](NC(=O)[C@H](N)c3ccc(O)cc3)C(=O)N2[C@H]1C(=O)O` [Amox, amoxicillin], in the experiment on B.st. spores [1] (milk spiked at 6 ppb), the “% Pos (Color 2)” value worked out at 100%, the “Color 2” value came out at 5, the “% Pos (Color 1)” value was determined as 100% and the “Color 1” value stood at 5. In the experiment on B.st. spores [2] (milk spiked at 6 ppb), the “16 hr Result” value is given as “Pos”, the “% Pos (16 hr Result)” value turned out to be 100%, the “% Pos (Result)” value amounted to 100% and the Result result is recorded as “Pos”.
On to `CC1(C)S[C@@H]2[C@H](NC(=O)[C@H](N)c3ccccc3)C(=O)N2[C@H]1C(=O)O` [Amp, ampicillin], for which, in the experiment with B.st. spores [1] (milk spiked at 5 ppb), the “% Pos (Color 2)” value was 100%, the “Color 2” value came out at 4, the “% Pos (Color 1)” value was found to be 100% and the “Color 1” value is listed as 5. Besides, in the experiment on B.st. spores [2] (milk spiked at 5 ppb), the “16 hr Result” value is recorded as “Pos”, the “% Pos (16 hr Result)” value came to 100%, the “% Pos (Result)” value was determined as 100% and the Result result is listed as “Pos”.
For the compound `CO/N=C(\C(=O)N[C@@H]1C(=O)N2C(C(=O)O)=C(CSC(=O)c3ccco3)CS[C@H]12)c1csc(N)n1` [Ceft, ceftiofur sodium], in the experiment on B.st. spores [1] (milk spiked at 50 ppb), the “% Pos (Color 2)” value amounted to 0%, the “Color 2” value worked out at 1, the “% Pos (Color 1)” value is on record as 0% and the “Color 1” value was 1. Also, in the experiment with B.st. spores [1] (milk spiked at 100 ppb), the “% Pos (Color 2)” value was found to be 0%, the “Color 2” value is 2, the “% Pos (Color 1)” value is 0% and the “Color 1” value is 2. In the experiment on B.st. spores [2] (milk spiked at 50 ppb), the “16 hr Result” value is listed as “Pos”, the “% Pos (16 hr Result)” value was 100%, the “% Pos (Result)” value is 100% and the Result entry was “Pos”. For the same compound, in the experiment on B.st. spores [2] (milk spiked at 100 ppb), the “16 hr Result” value is reported as “Pos”, the “% Pos (16 hr Result)” value is 100%, the “% Pos (Result)” value came to 100% and the Result entry is “Pos”.
On to `CC(=O)OCC1=C(C(=O)O)N2C(=O)[C@@H](NC(=O)CSc3ccncc3)[C@H]2SC1` [Ceph, cephaprin], for which, in the experiment on B.st. spores [1] (milk spiked at 10 ppb), the “% Pos (Color 2)” value is on record as 100%, the “Color 2” value came to 5, the “% Pos (Color 1)” value amounted to 100% and the “Color 1” value is 5. For the same compound, in the experiment on B.st. spores [2] (milk spiked at 10 ppb), the “16 hr Result” value was “Pos”, the “% Pos (16 hr Result)” value was found to be 100%, the “% Pos (Result)” value was found to be 100% and the Result result is reported as “Pos”.
As to `Cc1onc(-c2ccccc2Cl)c1C(=O)N[C@@H]1C(=O)N2[C@@H]1SC(C)(C)[C@@H]2C(=O)O` [Clox, cloxacillin], in the experiment with B.st. spores [1] (milk spiked at 30 ppb), the “% Pos (Color 2)” value was 100%, the “Color 2” value stood at 5, the “% Pos (Color 1)” value was 100% and the “Color 1” value is listed as 4. In the experiment on B.st. spores [1] (milk spiked at 50 ppb), the “% Pos (Color 2)” value was found to be 100%, the “Color 2” value amounted to 5, the “% Pos (Color 1)” value came out at 100% and the “Color 1” value is on record as 5. In the experiment with B.st. spores [2] (milk spiked at 30 ppb), the “16 hr Result” value is “Pos”, the “% Pos (16 hr Result)” value worked out at 100%, the “% Pos (Result)” value was 100% and the Result result is recorded as “Pos”. Besides, in the experiment on B.st. spores [2] (milk spiked at 50 ppb), the “16 hr Result” value is recorded as “Pos”, the “% Pos (16 hr Result)” value is reported as 100%, the “% Pos (Result)” value is reported as 100% and the Result result is given as “Pos”.
Consider `NC[C@@H]1O[C@H](O[C@H]2[C@@H](O)[C@H](O[C@@H]3[C@@H](O)[C@H](N)C[C@H](N)[C@H]3O[C@H]3O[C@H](CN)[C@@H](O)[C@H](O)[C@H]3N)O[C@@H]2CO)[C@H](N)[C@@H](O)[C@@H]1O` [Neo, neomycin], for which, in the experiment on B.st. spores [1] (milk spiked at 750 ppb), the “% Pos (Color 2)” value is 100%, the “Color 2” value is reported as 5, the “% Pos (Color 1)” value is recorded as 100% and the “Color 1” value is given as 5. For the same compound, in the experiment on B.st. spores [2] (milk spiked at 750 ppb), the “16 hr Result” value was “Pos”, the “% Pos (16 hr Result)” value came to 100%, the “% Pos (Result)” value turned out to be 100% and the Result entry is listed as “Pos”.
Consider `CC[C@@H]1CCN[C@H](C(=O)N[C@@H]([C@H]2O[C@H](SC)[C@H](O)[C@@H](O)[C@H]2O)[C@H](C)Cl)C1` [Pirl, pirlimycin], for which, in the experiment on B.st. spores [1] (milk spiked at 100 ppb), the “% Pos (Color 2)” value is listed as 100%, the “Color 2” value turned out to be 4, the “% Pos (Color 1)” value is listed as 100% and the “Color 1” value came to 4. Also, in the experiment with B.st. spores [1] (milk spiked at 200 ppb), the “% Pos (Color 2)” value came to 100%, the “Color 2” value came out at 5, the “% Pos (Color 1)” value worked out at 100% and the “Color 1” value was determined as 5. Also, in the experiment with B.st. spores [2] (milk spiked at 100 ppb), the “16 hr Result” value is recorded as “Pos”, the “% Pos (16 hr Result)” value turned out to be 100%, the “% Pos (Result)” value worked out at 100% and the Result entry is “Pos”. Besides, in the experiment on B.st. spores [2] (milk spiked at 200 ppb), the “16 hr Result” value is reported as “Pos”, the “% Pos (16 hr Result)” value is recorded as 100%, the “% Pos (Result)” value is recorded as 100% and the Result entry is recorded as “Pos”.
With `COc1ncnc(NS(=O)(=O)c2ccc(N)cc2)c1OC` [SDN, sulfadoxine], in the experiment with B.st. spores [1] (milk spiked at 100 ppb), the “% Pos (Color 2)” value was determined as 100%, the “Color 2” value came to 4, the “% Pos (Color 1)” value was 100% and the “Color 1” value was 5. Besides, in the experiment with B.st. spores [2] (milk spiked at 100 ppb), the “16 hr Result” value is “Pos”, the “% Pos (16 hr Result)” value turned out to be 100%, the “% Pos (Result)” value was 100% and the Result entry is “Pos”.
In the case of `CC[C@H]1OC(=O)C[C@@H](O)[C@H](C)[C@@H](O[C@@H]2O[C@H](C)[C@@H](O)[C@H](N(C)C)[C@H]2O)[C@@H](CCN2C[C@H](C)C[C@H](C)C2)C[C@@H](C)C(=O)/C=C/C(C)=C/[C@@H]1CO[C@@H]1O[C@H](C)[C@@H](O)[C@@H](OC)[C@H]1OC` [Til, tilmicosin], in the experiment with B.st. spores [1] (milk spiked at 80 ppb), the “% Pos (Color 2)” value is listed as 100%, the “Color 2” value is 5, the “% Pos (Color 1)” value is 100% and the “Color 1” value is on record as 5. Besides, in the experiment with B.st. spores [2] (milk spiked at 80 ppb), the “16 hr Result” value was “Pos”, the “% Pos (16 hr Result)” value is on record as 100%, the “% Pos (Result)” value amounted to 100% and the Result result was “Pos”.
